From PMC2891776 (Journal of medicinal chemistry, 2010)

Legend:
[1] = target: T1, hASBT (Homo sapiens, UniProt Q12908); assay: Inhibition of taurocholate uptake in hASBT-MDCK monolayers; type: cell-based; details: for fold more potent than 33: ratio of Ki relative to 33
T1 sequence (Q12908 1-348): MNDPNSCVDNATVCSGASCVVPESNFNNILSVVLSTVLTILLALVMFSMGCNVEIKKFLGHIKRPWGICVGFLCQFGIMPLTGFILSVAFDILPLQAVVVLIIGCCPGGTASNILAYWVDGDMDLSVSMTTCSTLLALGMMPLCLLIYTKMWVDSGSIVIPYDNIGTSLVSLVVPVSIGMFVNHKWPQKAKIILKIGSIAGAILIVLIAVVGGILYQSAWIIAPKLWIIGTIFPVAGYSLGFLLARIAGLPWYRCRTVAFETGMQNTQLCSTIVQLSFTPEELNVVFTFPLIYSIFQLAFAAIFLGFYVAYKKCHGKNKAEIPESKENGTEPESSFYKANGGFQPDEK

[2] = target: T1, hASBT; details: previously reported; cited from earlier work

In the case of `C[C@H](CCC(=O)N[C@@H](CCC(=O)Nc1cccc(C(=O)O)c1)C(=O)O)[C@H]1CC[C@H]2[C@@H]3[C@H](O)C[C@H]4C[C@H](O)CC[C@]4(C)[C@H]3CC[C@]12C` [Compound 32], the “Affinity (switch on or off)” value ([1]; observed affinity of dianions, molecular switch state) is reported as “High (on)” and the “fold more potent than 33” value [1] is reported as “over 2 fold”.

With `CC(CCC(=O)NC(CCC(=O)Nc1cccc(C(=O)O)c1)C(=O)OOCc1ccccc1)C1CCC2C3C(O)CC4CC(O)CCC4(C)C3CCC12C` (centres unmarked) [Compound 30] the “hASBT inhibition potency” value ([1]; inhibition of taurocholate uptake) was “potent inhibitor”.

In the case of `C[C@H](CCC(=O)N[C@@H](CCC(=O)O)C(=O)O)[C@H]1CC[C@H]2[C@@H]3[C@H](O)C[C@@H]4C[C@H](O)CC[C@]4(C)[C@H]3CC[C@]12C` [glu-CDCA, Glutamic acid CDCA amide], the “hASBT activity” value [2] is listed as “poor activity”.

For `C[C@H](CCC(=O)N[C@@H](CCC(=O)Nc1ccccc1C(=O)O)C(=O)O)[C@H]1CC[C@H]2[C@@H]3[C@H](O)C[C@H]4C[C@H](O)CC[C@]4(C)[C@H]3CC[C@]12C` [Compound 31], the “fold more potent than 33” value [1] was “over 2 fold”.
